Measurements as given in US20250221988A1 (Cullgen (Shanghai), Inc., priority 2022, published 2025).
Like-named read-outs stand apart in the source and are kept apart here.

How the values were obtained:
MV4;11 cells = assay: Cell viability assay (CellTiter-Glo) in MV4;11 cells; assay type: cell-based; details: read-out: MV4
Method: (§1) Cell Culture: RS4;11, MV4;11, MOLM-13 and other cells were cultured at 37° C. with 5% CO2 in RPMI 1640 or DMEM Medium supplemented with 10% fetal bovine serum. Cells were authenticated using the short tandem repeat (STR) assays. Mycoplasma test results were negative.
(§2) Cell viability assays: Cells were seeded at a density of 5000 cells per well in 96-well assay plates and treated with test compounds following a 8-point or 12-point 3-fold serial dilution. Three days later, cell viability was determined using the CellTiter-Glo assay kit according to the manufacturer's instructions. The dose-response curves were determined and IC50 values were calculated using the GraphPad Prism software following a nonlinear regression (least squares fit) method.
The IC50 values (nM) of each compound were determined in MV4;11 and MOLM-13 cells with or without gilteritinib (10 nM for MV4;11; and 20 nM for MOML-13) as described in the Materials and Methods subsection and calculated using the GraphPad Prism 5.0 software.

MOLM-13 cells = assay: Cell viability assay (CellTiter-Glo) in MOLM-13 cells; assay type: cell-based
Method: as §1
as §2, with “method. […]” for “method.”

[1] = Homo sapiens, MV4-11, 72 h, MV4;11 cells, compound alone, three days, 11 IC50
[2] = MV4;11 cells, with 10 nM gilteritinib, three days, 11 IC50 (nM) + 10 nM Gil
[3] = Homo sapiens, 72 h, MOLM-13 cells, compound alone, three days, read-out: MOLM-13 IC50
[4] = MOLM-13 cells, with gilteritinib, three days, read-out: MOLM-13 IC50 (nM) + 10 nM Gil
[5] = Homo sapiens, MV4-11, 72 h, 11 IC50 (nM)
[6] = 11 IC50 (nM) + 10 nM Gil, MV4;11 cells, with 10 nM gilteritinib, three days
[7] = Homo sapiens, MOLM-13, 72 h, read-out: MOLM-13 IC50 (nM)
[8] = read-out: MOLM-13 IC50 (nM) + 10 nM Gil, MOLM-13 cells, with gilteritinib, three days

| Structure (SMILES) | IC50 (MV4;11 cells; [1]) | IC50 (MV4;11 cells; [2]) | IC50 (MOLM-13 cells; [3]) | IC50 (MOLM-13 cells; [4]) | IC50 (MV4;11 cells; [5]) | IC50 (MV4;11 cells; [6]) | IC50 (MOLM-13 cells; [7]) | IC50 (MOLM-13 cells; [8]) |
| --- | --- | --- | --- | --- | --- | --- | --- | --- |
| Cn1cnc2cnc(-c3cn([C@H]4C[C@H](CNc5ccc6c(c5)C(=O)N(C5CCC(=O)NC5=O)C6=O)C4)nc3C3CC3)cc21 (stereo partly drawn) [GS-658, 5-(((Trans-3-(3-cyclopropyl-4-(1-methyl-1H-imidazo[4,5-c]pyridin-6-yl)-1H-pyrazol-1-yl)cyclobutyl)methyl)amino)-2-(2,6-dioxopiperidin-3-yl)isoindoline-1,3-dione] | > 1000 nM | 100 to 1000 nM | > 1000 nM | 100 to 1000 nM | – | – | – | – |
| CC(C)n1ncc2ccnc(-c3cn([C@H]4C[C@H](CNc5ccc6c(c5)C(=O)N(C5CCC(=O)NC5=O)C6=O)C4)nc3C3CC3)c21 (stereo partly drawn) [GS-661, 5-(((Trans-3-(3-cyclopropyl-4-(1-isopropyl-1H-pyrazolo[3,4-c]pyridin-7-yl)-1H-pyrazol-1-yl)cyclobutyl)methyl)amino)-2-(2,6-dioxopiperidin-3-yl)isoindoline-1,3-dion] | – | – | – | – | 10 to 100 nM | < 10 nM | 10 to 100 nM | < 10 nM |
| O=C1CCC(N2Cc3ccc(NC[C@H]4C[C@H](n5cc(-c6cnc7ccccc7n6)c(C6CC6)n5)C4)cc3C2=O)C(=O)N1 (stereo partly drawn) [GS-662, 3-(6-(((Trans-3-(3-cyclopropyl-4-(quinoxalin-2-yl)-1H-pyrazol-1-yl)cyclobutyl)methyl)amino)-1-oxoisoindolin-2-yl)piperidine-2,6-dione] | > 1000 nM | – | > 1000 nM | – | – | – | – | – |
| O=C1CCC(N2C(=O)c3ccc(NC[C@H]4C[C@H](n5nc(C6CC6)c6cncnc65)C4)cc3C2=O)C(=O)N1 (stereo partly drawn) [GS-663, 5-(((Trans-3-(3-cyclopropyl-1H-pyrazolo[3,4-d]pyrimidin-1-yl)cyclobutyl)methyl)amino)-2-(2,6-dioxopiperidin-3-yl)isoindoline-1,3-dione] | > 1000 nM | – | > 1000 nM | 100 to 1000 nM | – | – | – | – |
| CC(C)n1cnc2cnc(-c3cn([C@H]4C[C@H](CNc5ccc6c(c5)C(=O)N(C5CCC(=O)NC5=O)C6=O)C4)nc3C3CC3)cc21 (stereo partly drawn) [GS-664, 5-(((Trans-3-(3-cyclopropyl-4-(1-isopropyl-1H-imidazo[4,5-c]pyridin-6-yl)-1H-pyrazol-1-yl)cyclobutyl)methyl)amino)-2-(2,6-dioxopiperidin-3-yl)isoindoline-1,3-dione] | – | – | – | – | > 1000 nM | 100 to 1000 nM | > 1000 nM | 100 to 1000 nM |
| O=C1CCC(N2C(=O)c3ccc(NC[C@H]4C[C@H](n5cc(-c6ncccc6C6CCNCC6)c(C6CC6)n5)C4)cc3C2=O)C(=O)N1 (stereo partly drawn) [GS-665, 5-(((Trans-3-(3-cyclopropyl-4-(3-(piperidin-4-yl)pyridin-2-yl)-1H-pyrazol-1-yl)cyclobutyl)methyl)amino)-2-(2,6-dioxopiperidin-3-yl)isoindoline-1,3-dione] | > 1000 nM | – | > 1000 nM | – | – | – | – | – |
| CN1CCC(Nc2cn([C@H]3C[C@H](CNc4ccc5c(c4)C(=O)N(C4CCC(=O)NC4=O)C5=O)C3)nc2C2CC2)CC1 (stereo partly drawn) [GS-666, 5-(((Trans-3-(3-cyclopropyl-4-((1-methylpiperidin-4-yl)amino)-1H-pyrazol-1-yl)cyclobutyl)methyl)amino)-2-(2,6-dioxopiperidin-3-yl)isoindoline-1,3-dione] | > 1000 nM | – | > 1000 nM | – | – | – | – | – |
| O=C1CCC(N2C(=O)c3ccc(NC[C@H]4C[C@H](n5cc(NC6CCCCC6)c(C6CC6)n5)C4)cc3C2=O)C(=O)N1 (stereo partly drawn) [GS-667, 5-(((Trans-3-(4-(cyclohexylamino)-3-cyclopropyl-1H-pyrazol-1-yl)cyclobutyl)methyl)amino)-2-(2,6-dioxopiperidin-3-yl)isoindoline-1,3-dione] | – | – | – | – | 10 to 100 nM | < 10 nM | 10 to 100 nM | 10 to 100 nM |

Second part, led by results:

| IC50 (MV4;11 cells; [1]) | IC50 (MV4;11 cells; [2]) | IC50 (MOLM-13 cells; [3]) | IC50 (MOLM-13 cells; [4]) | Structure (SMILES) | IC50 (MV4;11 cells; [5]) | IC50 (MV4;11 cells; [6]) | IC50 (MOLM-13 cells; [7]) | IC50 (MOLM-13 cells; [8]) |
| --- | --- | --- | --- | --- | --- | --- | --- | --- |
| 100 to 1000 nM | 10 to 100 nM | > 1000 nM | 100 to 1000 nM | CN1CC(c2ccc3ncc(-c4cn([C@H]5C[C@H](CNc6ccc7c(c6)C(=O)N(C6CCC(=O)NC6=O)C7=O)C5)nc4C4CC4)nc3c2)C1 (stereo partly drawn) [GS-655, 5-(((Trans-3-(3-cyclopropyl-4-(7-(1-methylazetidin-3-yl)quinoxalin-2-yl)-1H-pyrazol-1-yl)cyclobutyl)methyl)amino)-2-(2,6-dioxopiperidin-3-yl)isoindoline-1,3-dione] | – | – | – | – |
| 10 to 100 nM | 10 to 100 nM | 100 to 1000 nM | 10 to 100 nM | CC(C)n1ncc2cnc(-c3cn([C@H]4C[C@H](CNc5ccc6c(c5)C(=O)N(C5CCC(=O)NC5=O)C6=O)C4)nc3C(F)F)cc21 (stereo partly drawn) [GS-656, 5-(((Trans-3-(3-(difluoromethyl)-4-(1-isopropyl-1H-pyrazolo[4,3-c]pyridin-6-yl)-1H-pyrazol-1-yl)cyclobutyl)methyl)amino)-2-(2,6-dioxopiperidin-3-yl)isoindoline-1,3-dione] | – | – | – | – |
| 10 to 100 nM | < 10 nM | 10 to 100 nM | < 10 nM | Cn1ncc2cnc(-c3cn([C@H]4C[C@H](CNc5ccc6c(c5)C(=O)N(C5CCC(=O)NC5=O)C6=O)C4)nc3C(F)F)cc21 (stereo partly drawn) [GS-657, 5-(((Trans-3-(3-(difluoromethyl)-4-(1-methyl-1H-pyrazolo[4,3-c]pyridin-6-yl)-1H-pyrazol-1-yl)cyclobutyl)methyl)amino)-2-(2,6-dioxopiperidin-3-yl)isoindoline-1,3-dione] | – | – | – | – |
| < 10 nM | < 10 nM | < 10 nM | < 10 nM | O=C1CCC(N2C(=O)c3ccc(NC[C@H]4C[C@H](n5cc(-c6cnc7ccc(N8CCC(O)C8)cc7n6)c(C6CC6)n5)C4)cc3C2=O)C(=O)N1 (stereo partly drawn) [GS-659, 5-(((Trans-3-(3-cyclopropyl-4-(7-(3-hydroxypyrrolidin-1-yl)quinoxalin-2-yl)-1H-pyrazol-1-yl)cyclobutyl)methyl)amino)-2-(2,6-dioxopiperidin-3-yl)isoindoline-1,3-dione] | – | – | – | – |
| < 10 nM | < 10 nM | < 10 nM | < 10 nM | CC(C)n1cc2ccnc(-c3cn([C@H]4C[C@H](CNc5ccc6c(c5)C(=O)N(C5CCC(=O)NC5=O)C6=O)C4)nc3C3CC3)c2n1 (stereo partly drawn) [GS-660, 5-(((Trans-3-(3-cyclopropyl-4-(2-isopropyl-2H-pyrazolo[3,4-c]pyridin-7-yl)-1H-pyrazol-1-yl)cyclobutyl)methyl)amino)-2-(2,6-dioxopiperidin-3-yl)isoindoline-1,3-dione] | – | – | – | – |
| < 10 nM | < 10 nM | < 10 nM | < 10 nM | Cc1cc(F)cnc1-c1cn([C@H]2C[C@H](CNc3ccc4c(c3)CN(C3CCC(=O)NC3=O)C4=O)C2)nc1C(F)F (stereo partly drawn) [GS-668, 3-(5-(((Trans-3-(3-(difluoromethyl)-4-(5-fluoro-3-methylpyridin-2-yl)-1H-pyrazol-1-yl)cyclobutyl)methyl)amino)-1-oxoisoindolin-2-yl)piperidine-2,6-dione] | – | – | – | – |
| 100 to 1000 nM | 100 to 1000 nM | > 1000 nM | 100 to 1000 nM | O=C1CCC(N2C(=O)c3ccc(NC[C@H]4C[C@H](n5cc(Nc6ccccn6)c(C6CC6)n5)C4)cc3C2=O)C(=O)N1 (stereo partly drawn) [GS-669, 5-(((Trans-3-(3-cyclopropyl-4-(pyridin-2-ylamino)-1H-pyrazol-1-yl)cyclobutyl)methyl)amino)-2-(2,6-dioxopiperidin-3-yl)isoindoline-1,3-dione] | – | – | – | – |
| 10 to 100 nM | 10 to 100 nM | 100 to 1000 nM | 10 to 100 nM | O=C1CCC(N2C(=O)c3ccc(NC[C@H]4C[C@H](n5cc(Nc6cccnc6)c(C6CC6)n5)C4)cc3C2=O)C(=O)N1 (stereo partly drawn) [GS-670, 5-(((Trans-3-(3-cyclopropyl-4-(pyridin-3-ylamino)-1H-pyrazol-1-yl)cyclobutyl)methyl)amino)-2-(2,6-dioxopiperidin-3-yl)isoindoline-1,3-dione] | – | – | – | – |
